The text below walks through data of patent publication US6774220B1, “Compounds having lectinic properties and their biological applications” (Association pour le Développement de la Biothérapie …, priority 1995, dated 2004).

Where two headings read alike, the source gives them in different places. Marks after values point to notes of the source that are not given here.

Assay [1] relates to Ost. Sarc. ESS (SCLs excreted by the osteogenic sarcoma ESS). In words: Antibody titre against SCL excreted by osteogenic sarcoma ESS. The class given is binding. An excerpt:
(§1) By operating according to standard techniques, the formation of antibodies against the SEQ ID NO: 5 peptides or SEQ ID NO:6 is induced. The specific characters of these antibodies is set out in Table 7.

Assay [2] addresses oligopeptide 41-55 (SEQ ID NO: 5) (Homo sapiens, UniProt P08729). In words: Antibody titre against oligopeptide antigen 41-55. The class given is binding.
Description: as §1

Assay [3] has as its target oligopeptide 81-95 (SEQ ID NO: 6) (Homo sapiens, UniProt P08729). In words: Antibody titre against oligopeptide antigen 81-95. The class given is binding.
Description: as §1

The next assay has as its system murine sarcolectin. In words: Action of simple sugars on the agglutination of cells by sarcolectin. The class given is cell-based, Swiss mice. To be noted: in the presence of 2 agglutinating units of murine sarcolectin; H9 cells. On the procedure: A wide variety of cells originating either from rodents or from primates was tested. Agglutination is obtained by suspending the cells in an MEM medium in the absence of serum. The test may be carried out in two ways, either in the presence of a sarcolectin dilution range in a base 2 geometric progression, by identifying the concentration at which 50% of the cells are agglutinated, or by identifying the affinity of the various sugars for the cell receptors.
In the example shown, murine sarcolectin originating from the ascitic fluid of Swiss mice grafted with Crocker TG180 sarcoma contains 32 units agglutinating the H9 cells which originate from a T lymphoma, fixed by 10% formaldehyde.
The table below illustrates the affinity of the receptors for the various sugars in the presence of 2 agglutinating units.

For the next assay, the system named is TG-180 tumour cells. In words: Antitumour action on grafted TG-180 ascitic tumour.
The subject of assay [4] is encephalomyocarditis virus (EMC). The experiment in a line: Protection of IFN against the encephalomyocarditis virus in Swiss mice, with SCL inhibiting sugars. To be noted: EMC virus i.p. The class given is in vivo. As to the method: The model used is the encephalomyocarditis virus (EMC) which kills mice in practically all cases after rather varying but relatively short incubation periods.
Male mice (average weight: […], aged 8 to 10 weeks) were injected i.p. with sodium galacturonate, glucosamine and N-acetylneuraminic acid (5 to 10% solutions containing 100 mM sugar). 24 hours afterwards, one hundred lethal doses (50%) of EMC virus are injected by the same route. After one hour, murine interferon is injected (in a dose of 20,000 units in 0.5 ml). Table 3 gives the number of animals surviving out of the total tested, the percentage and statistical significance.

The subject of the next assay is T (lympho) cells. The experiment in a line: Stimulation over 24 hours of the synthesis of DNA in T (lympho) cells. The class given is cell-based. As to the method:
XI Stimulation over 24 hours of the synthesis of DNA in T (lympho) cells

Assay [5] deals with action of interferon (antiviral state against vesicular stomatitis virus) in mouse L cells. The class given is cell-based.
Where [6] appears, read: single agent (+MEM, or IFN in reference group).
Where [7] appears, read: IL2 (100 u) +SCL + inhibitor (NANA 0.75 mmol.; oligo 41-55 3 μγ/ml).

Description for TG-180 tumour cells: In order to test the antitumour capacity of SCL inhibiting sugars, TG-180 tumour cells originating from a tumour resistant to chemical metabolic inhibitors was grafted. In a concentration of 3×10^6 cells injected i.p. into 20 gr Swiss mice, an ascitic tumour is obtained which is detectable in 10 days and kills practically 100% of the animals in 21-25 days.
In parallel series, the various groups of animals were treated 3 days after inoculation, either with a specific sugar (glucosamine, lactose, galacturonate, N.A.N.A., neuramine-lactose) in a 5 to 10% solution, the sugar concentration being 100 mM, or with the same treatment in association with an injection of immuno-stimulant (extract of corynebacterium parvum, Merieux, France), in a dose of 200 g/mouse, or interferon, or both.
4 groups of mice per experiment were used.
They are assessed by the percentage of tumours that appeared on the 10th day, the mean survival time of the animals (MST) in. days, and the final survival (as a percentage).

With 41-55 (GLGASRPRVAVRSAY), the “antibody titre, Ost. Sarc. ESS as antigen” value in assay [1] was >12 800. Moreover, the “antibody titre, oligopeptide 41-55 as antigen” value in assay [2] is on record as >12 600. Moreover, the “antibody titre, oligopeptide 81-95 as antigen” value in assay [3] is less than 200.
Turning to 81-95 (DPFSQRVRQEESEQI), in assay [2], the “antibody titre, oligopeptide 41-55 as antigen” value was less than 200. In addition, the “antibody titre, oligopeptide 81-95 as antigen” value in assay [3] is >12 800.
With `OC[C@H]1OC(O)[C@H](O)[C@@H](O)[C@H]1O` (some centres unmarked) [D galactose], the affinity in the assay on murine sarcolectin is 0.28 mM.
Take `CC(=O)N[C@H]1[C@H]([C@H](O)[C@H](O)CO)OC(O)(C(=O)O)C[C@@H]1O` (some centres unmarked) [N.A.N.A, N-acetylneuraminic acid]: in the assay with murine sarcolectin, the affinity is listed as 0.0075 mM. Moreover, in the assay on TG-180 tumour cells (+CP), the “Final survival (%)” value is “(53) %”; the “Final survival, Number” value is listed as 8; the “MST (mean survival time)” value came out at 69 ± 12 days; the “Tumours on 10th day (%)” value worked out at 40%. The “Tumours on 10th day, number” value in the assay with TG-180 tumour cells (+CP) is 6. In the assay with TG-180 tumour cells (+CP +IFN), the “Final survival (%)” value is “(36) %”; the “Final survival, Number” value is given as 11; the “MST (mean survival time)” value was determined as 70 ± 12 days; the “Tumours on 10th day (%)” value worked out at 43%. Also, the “Tumours on 10th day, number” value with TG-180 tumour cells (+CP +IFN) is 13. In the assay with TG-180 tumour cells (+IFN), the “Final survival (%)” value is listed as “(13) %”; the “Final survival, Number” value was 4; the “MST (mean survival time)” value stood at 39 ± 12 days; the “Tumours on 10th day (%)” value is on record as 16%. Also, in the assay on TG-180 tumour cells (+IFN), the “Tumours on 10th day, number” value is on record as 5. Besides, in the assay with TG-180 tumour cells (agent alone), the “Final survival (%)” value was “(0) %”; the “Final survival, Number” value is listed as 0; the “MST (mean survival time)” value was determined as 24 ± 6 days; the “Tumours on 10th day (%)” value was 34%. The “Tumours on 10th day, number” value with TG-180 tumour cells (agent alone) is recorded as 9. Also, in assay [4] (setting [6]), the “number of animals surviving out of the total number tested” value is reported as 0/15 and the percentage surviving was 0%. In assay [4] (sugar +IFN (20,000 units)), the “number of animals surviving out of the total number tested” value was 8/15c and the percentage surviving is 53%. For the same molecule, the “effect on the stimulation of DNA synthesis by SCL (in words)” value with T (lympho) cells (24 hours) is on record as “inhibited”. Further, in the assay with T (lympho) cells (setting [7]), the “synthesis of DNA, EXP. N° 1” value is given as 4,657 ± 214.78 and the “synthesis of DNA, EXP. N° 2” value is given as 27,133 ± 1771.
Regarding `OC[C@H]1O[C@@H](O[C@H]2[C@H](O)[C@@H](O)[C@@H](O)O[C@@H]2CO)[C@H](O)[C@@H](O)[C@H]1O` [α lactose], the affinity with murine sarcolectin came out at 0.125 mM.
Same read-out and setting: in the case of `OC[C@H]1O[C@@H](O[C@H]2[C@H](O)[C@@H](O)[C@H](O)O[C@@H]2CO)[C@H](O)[C@@H](O)[C@H]1O` [β lactose] it was 0.25 mM.

B1: recombinant SCL: SCL expressed in mouse L cells transfected with plasmid containing the cloned gene, hexamethasone-inducible promoter (protein)
chain: SIHFSSPVFTSRSAAFSGRGAQVRLSSARPGGLGSSSLYGLGASRPRVAVRSAYGGPVGAGIREVTINQSLLAPLRLGADPFSQRVRQEESEQIKTLNNKFASFIDKVRFLEQQNKLLETKWTLLQEQKSAKSSRLPDIFEAQIAGLRGQLEAMQVDGGRLEQGLRTMQDVVEDFKNKYEDEINRRTAAENEFVVLKKDVDAAYMSKVELEAKVDALNDEINFLRTLNETELTELQSQISDTSVVLSMDNSRSLDLDGIIAEVKAQYEEMAKCSRAEAEAWYQTKFETLQAQAGKHGDDLRNTRNEISEMNRAIQRLQAEIDNIKNQRAKLEAAIAEAEERGELALKDARAKQEELEAALQRAKQDMARQLREYQELMSVKLALDIEIATYRKLLEGEESRLAGDGVGAANISVMNSTGGSSSGGGIGLTLGGTMGSNALSFSSSAGPGLLKAYSIRTASASRRSTRD
As for B1, the “limit dilution of SCL at which the action of the interferon was completely blocked” value in assay [5] (200 IU of interferon for 5 hours, then SCL in base 2 dilutions) is given as 1/32. For the same molecule, the IFN titer in assay [5] (A: IFN + SCL induced by hexamethasone) is reported as less than 2 U; in assay [5] (A: IFN + SCL non-induced), more than 5120 U. Further, in assay [5] (B: IFN 200 U + SCL), the “SCL titer (concentration of SCL which inhibits by 100% the antiviral state)” value was determined as 32 U. 50%*. Besides, the “effect on antiviral state (in words)” value in assay [5] (interferon 5 hours, then SCL 18 hours) was “blocks the state of the antiviral effect”.
